From patent US9536718B2, “Detection of membrane protein-therapeutic agent complexes by mass spectrometry” (Oxford University Innovation Limited, priority 2011, dated 2017)

Experiments:
[1] = test system: P-gp; experiment: native mass spectrometry of P-gp with CsA, nucleotides and lipid (Example 2); format: binding; settings: for number of nucleotides bound to P-gp: 1 mM MgCl2 plus 50 μM ATP or ATPγS, FIG. 2c
Protocol: His-tagged P-glycoprotein was expressed in P.pastoris and purified according to a protocol described previously (see Aller et al, supra). Lipids were purchased from Avanti Polar Lipids.
Before analysis, P-gp was buffer exchanged into 200 mM ammonium acetate pH 7 supplemented with 0.02% n-dodecyl-β-D-maltoside (DDM), using micro BioSpin-6 devices (Bio-Rad). Lipids were first prepared at 2 mM in chloroform and then diluted to 20 μM in 200 mM ammonium acetate pH 7 supplemented with 0.02% DDM. Cyclosporin was first dissolved at 8 mM in methanol and then diluted to 5-100 μM in 200 mM ammonium acetate pH 7 supplemented with 0.02% DDM. MS spectra were acquired on a Q-TOF2 (Micromass) modified for the transmission and detection of high mass complexes. Samples were introduced in the ion-source via gold-coated nanoflow capillaries. […] Micelle transmission was enhanced by increasing the Pirani pressure to 30 mbar. […] Spectra were analysed with Massign software.

[2] = test system: mouse P-gp; experiment: nanoelectrospray MS / IM-MS of P-gp pre-incubated with drug compounds (Example 1); format: binding; settings: 2-3 mg/ml P-gp pre-incubated with 1-10 molar equivalents of test compound; FIG. 1
Protocol: P-glycoprotein (P-gp) was expressed and purified as reported previously (Aller et al, Science, 2009, 323, 1718-1722). In this method, P-gp was expressed in P. pastoris strain and purified as a his-tagged protein from the membranes solubilised with Triton X-100. Buffer was exchanged by washing with buffer containing 20 mM imidazole, 0.04% sodium cholate and 0.0675% β-DDM. The protein was concentrated, subjected to gel filtration chromatography and assayed for purity by SDS-PAGE.
An aliquot (30 μl) of mouse P-gp solution (9 mg/ml) in 0.07% β-DDM, 0.04% sodium cholate, 100 mM NaCl, 0.2 mM TCEP, 20 mM Hepes, pH 7.5 was buffer-exchanged using a membrane filter and diluted 3-fold in 300 mM ammonium acetate, pH 7.5. Spectra of P-gp with drug compounds were obtained by first pre-incubating 2-3 mg/ml P-gp protein with 1-10 molar equivalents of the test compound for 15 minutes to overnight prior to nanoelectrospray ionisation mass spectrometry.
Mass spectrometry measurements were carried out on a Synapt HDMS (Waters, Manchester, UK) quadrupole-S2 ion-trap-IM-MS instrument modified for transmission and detection of ions at high m/z ratios. Aliquots of complex-containing solutions (2 μL) in detergent were introduced via gold-coated nanoflow electrospray capillaries. […]

| Compound | number of nucleotides bound to P-gp [1] | further results |
| --- | --- | --- |
| Nc1ncnc2c1ncn2[C@@H]1O[C@H](COP(=O)(O)OP(=O)(O)OP(=O)(O)O)[C@@H](O)[C@H]1O [ATP, adenosine triphosphate] | one or two | – |
| Nc1ncnc2c1ncn2[C@@H]1O[C@H](COP(=O)(O)OP(=O)(O)OP(O)(O)=S)[C@@H](O)[C@H]1O [ATPγS] | one or two | – |
| CC(C)[C@H]1NC(=O)c2c[se]c(n2)[C@@H](C(C)C)NC(=O)c2c[se]c(n2)[C@@H](C(C)C)NC(=O)c2c[se]c1n2 [QZ59Se, RRR] | – | effect of drug binding on the mass spectrum of P-gp [2]: altered the mass spectrum of the membrane protein |
| cardiolipin 14:1(3)-15:1 | – | number of molecules bound to P-gp already bound to one ATP or ATPγS ([1]; first incubated with ATP or ATPγS, then with cardiolipin or CsA, FIG. 3a, b): one or two |
